# Experimental data as given in ChEMBL document CHEMBL1208782, “Synthesis and pharmacological validation of a novel series of non-steroidal FXR agonists” (Bioorg Med Chem Lett, 2010).
# Tests used:
# Assay type in all cases: functional, cell-based
# Bile acid receptor = target: T1, Bile acid receptor (Homo sapiens, UniProt Q96RI1); experiment: Agonist activity at human […] FXR LBD expressed in HEK293 cells coexpressing GAL4-DNA bindig domain and pFRluc by mammalian one-hybrid assay; settings: read-out: EC50
# T1 sequence (Q96RI1 whole entry): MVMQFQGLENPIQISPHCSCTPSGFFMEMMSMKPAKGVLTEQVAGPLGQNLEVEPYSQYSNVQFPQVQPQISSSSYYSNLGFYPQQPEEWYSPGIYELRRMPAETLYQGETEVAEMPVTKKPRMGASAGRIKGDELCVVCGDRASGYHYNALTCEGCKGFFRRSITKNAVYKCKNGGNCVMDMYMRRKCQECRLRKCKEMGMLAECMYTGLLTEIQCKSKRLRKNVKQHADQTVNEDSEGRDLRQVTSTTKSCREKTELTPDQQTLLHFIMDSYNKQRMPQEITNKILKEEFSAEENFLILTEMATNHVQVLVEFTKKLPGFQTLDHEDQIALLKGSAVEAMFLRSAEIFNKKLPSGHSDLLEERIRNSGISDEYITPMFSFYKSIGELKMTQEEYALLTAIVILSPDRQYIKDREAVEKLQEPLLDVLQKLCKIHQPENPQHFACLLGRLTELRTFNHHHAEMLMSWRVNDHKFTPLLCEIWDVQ
# [1] = target: T2, Retinoic acid receptor RXR-alpha (Homo sapiens, UniProt P19793); experiment: Agonist activity at RXRalpha-LBD expressed in HEK293 cells assessed as Gal4-DBD interaction by cellular mammalian one hybrid assay
# T2 sequence (P19793 whole entry): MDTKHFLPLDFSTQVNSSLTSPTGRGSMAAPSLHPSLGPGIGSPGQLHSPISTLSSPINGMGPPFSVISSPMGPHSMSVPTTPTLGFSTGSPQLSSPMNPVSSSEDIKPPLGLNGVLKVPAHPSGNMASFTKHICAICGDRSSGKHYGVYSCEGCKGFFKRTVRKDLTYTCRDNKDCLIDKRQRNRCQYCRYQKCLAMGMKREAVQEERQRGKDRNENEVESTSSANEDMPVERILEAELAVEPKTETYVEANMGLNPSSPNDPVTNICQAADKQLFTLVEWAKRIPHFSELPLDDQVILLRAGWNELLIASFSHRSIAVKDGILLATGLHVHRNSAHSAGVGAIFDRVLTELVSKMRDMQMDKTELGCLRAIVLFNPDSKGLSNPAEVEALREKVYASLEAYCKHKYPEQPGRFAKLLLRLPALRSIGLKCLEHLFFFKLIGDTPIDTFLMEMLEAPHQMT
# Estrogen receptor beta = Estrogen receptor beta (Homo sapiens, UniProt Q92731); experiment: Agonist activity at ERbeta-LBD expressed in HEK293 cells assessed as Gal4-DBD interaction by cellular mammalian one hybrid assay relative to estradiol
# [2] = target: T3, PXR (nuclear receptor subfamily 1 group I member 2) (Homo sapiens, UniProt O75469); experiment: Agonist activity at PXR-LBD expressed in HEK293 cells assessed as Gal4-DBD interaction by cellular mammalian one hybrid assay relative to SR-12813; settings: HEK293 cells expressing PXR-LBD, read-out: Efficacy
# T3 sequence (O75469 whole entry): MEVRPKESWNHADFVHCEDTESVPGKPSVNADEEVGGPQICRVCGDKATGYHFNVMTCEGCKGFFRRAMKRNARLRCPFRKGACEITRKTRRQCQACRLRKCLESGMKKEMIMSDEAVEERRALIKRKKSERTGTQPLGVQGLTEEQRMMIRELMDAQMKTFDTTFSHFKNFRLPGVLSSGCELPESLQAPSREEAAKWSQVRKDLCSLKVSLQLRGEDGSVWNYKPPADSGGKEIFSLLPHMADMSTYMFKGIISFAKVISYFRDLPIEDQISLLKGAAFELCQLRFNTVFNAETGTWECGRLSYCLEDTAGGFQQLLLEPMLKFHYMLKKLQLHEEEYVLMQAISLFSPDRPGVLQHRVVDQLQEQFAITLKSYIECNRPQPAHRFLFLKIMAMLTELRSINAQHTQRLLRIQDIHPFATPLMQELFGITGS
# [3] = target: T4, Mineralocorticoid receptor (Homo sapiens) (UniProt P08235); experiment: Agonist activity at mineralocorticoid receptor-LBD expressed in HEK293 cells assessed as Gal4-DBD interaction by cellular mammalian one hybrid assay relative to mineralocorticoid
# T4 sequence (whole entry): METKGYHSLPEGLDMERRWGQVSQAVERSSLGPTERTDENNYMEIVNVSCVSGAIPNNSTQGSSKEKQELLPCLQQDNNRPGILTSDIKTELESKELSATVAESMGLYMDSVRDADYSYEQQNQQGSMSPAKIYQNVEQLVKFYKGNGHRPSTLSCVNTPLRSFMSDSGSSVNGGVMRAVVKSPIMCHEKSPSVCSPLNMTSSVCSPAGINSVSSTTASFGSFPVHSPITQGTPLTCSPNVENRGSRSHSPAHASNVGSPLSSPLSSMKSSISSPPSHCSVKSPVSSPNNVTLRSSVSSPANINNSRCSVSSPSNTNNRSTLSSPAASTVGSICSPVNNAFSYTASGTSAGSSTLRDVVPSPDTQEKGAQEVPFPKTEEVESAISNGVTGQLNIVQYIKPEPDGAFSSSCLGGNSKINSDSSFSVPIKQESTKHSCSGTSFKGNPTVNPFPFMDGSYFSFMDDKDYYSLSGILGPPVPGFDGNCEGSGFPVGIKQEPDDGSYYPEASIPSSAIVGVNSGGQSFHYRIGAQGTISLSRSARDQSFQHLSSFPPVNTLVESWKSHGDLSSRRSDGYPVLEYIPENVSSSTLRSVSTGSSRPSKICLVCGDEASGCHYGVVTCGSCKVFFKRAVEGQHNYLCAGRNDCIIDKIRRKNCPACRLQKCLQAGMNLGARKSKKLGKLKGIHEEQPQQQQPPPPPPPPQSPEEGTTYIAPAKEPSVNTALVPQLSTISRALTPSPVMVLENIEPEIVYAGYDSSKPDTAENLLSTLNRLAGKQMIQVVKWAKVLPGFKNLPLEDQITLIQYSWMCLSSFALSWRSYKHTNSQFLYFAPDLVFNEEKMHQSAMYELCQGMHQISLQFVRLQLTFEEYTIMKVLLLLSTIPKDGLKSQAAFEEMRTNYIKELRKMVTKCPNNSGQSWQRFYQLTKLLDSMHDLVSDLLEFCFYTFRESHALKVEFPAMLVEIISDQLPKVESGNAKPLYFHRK
# Chain of Estrogen receptor beta (Q92731 whole entry, the tested form may be a part): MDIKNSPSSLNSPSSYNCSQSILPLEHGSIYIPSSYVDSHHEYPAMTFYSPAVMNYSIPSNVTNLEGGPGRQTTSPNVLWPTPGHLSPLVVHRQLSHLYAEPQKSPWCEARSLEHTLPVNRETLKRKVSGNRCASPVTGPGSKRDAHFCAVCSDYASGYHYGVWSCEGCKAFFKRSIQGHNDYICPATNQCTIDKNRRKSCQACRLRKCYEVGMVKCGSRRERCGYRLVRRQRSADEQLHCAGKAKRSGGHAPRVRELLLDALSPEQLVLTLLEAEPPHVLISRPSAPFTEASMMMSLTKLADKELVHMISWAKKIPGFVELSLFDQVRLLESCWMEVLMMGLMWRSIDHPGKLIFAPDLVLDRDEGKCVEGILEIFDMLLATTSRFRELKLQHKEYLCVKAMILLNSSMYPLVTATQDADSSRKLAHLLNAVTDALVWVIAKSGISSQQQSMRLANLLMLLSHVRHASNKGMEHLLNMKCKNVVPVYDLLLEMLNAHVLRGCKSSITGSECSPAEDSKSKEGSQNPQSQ
SMILES,EC50 (Bile acid receptor),EC50 [1],Efficacy (Estrogen receptor beta),Emax [2],Efficacy [3]
CN(Cc1cccc(C(=O)O)c1)c1ccc(OCc2c(-c3c(Cl)cccc3Cl)noc2C2CC2)nc1C(F)(F)F,9 nM,> 10000 nM,20%,62%,0%
CN(Cc1ccc(C(=O)O)cc1)c1ccc(OCc2c(-c3c(Cl)cccc3Cl)noc2C2CC2)nc1C(F)(F)F,30 nM,> 10000 nM,0%,67%,0%
CC(C)c1onc(-c2c(Cl)cccc2Cl)c1COc1ccc(N(C)Cc2ccc(C(=O)O)cc2)c(C(F)(F)F)n1,90 nM,> 10000 nM,0%,60%,0%
